These results are taken from publication PMC10458514, “Structure–Activity Relationship Studies on 6-Chloro-1-phenylbenzazepines Leads to the Identification of a New Dopamine D1 Receptor Antagonist” (Molecules, 2023).

Test [1] deals with T1, D1R (Homo sapiens, UniProt P21728).
T1 construct: Eurofins Discover X
To be noted: cited from earlier work.

In test [2] the target is D5R. To be noted: cited from earlier work.
The target of test [3] is D1R (dopamine D1 receptor) (Homo sapiens, UniProt P21728).
For test [4], the target named is D5R (dopamine D5 receptor) (Homo sapiens, UniProt P21918). The conditions noted are these: read-out: Ki D5R; [3H]SCH23390 radioligand; triplicate; na = not active (<50% inhibition in a primary assay when tested at 10 µM).

Several values for one entry are separate records, joined by “and”; a condition that tells them apart may be missing. Equal values may be shown once.

Chain of D1R (dopamine D1 receptor) (P21728 whole entry): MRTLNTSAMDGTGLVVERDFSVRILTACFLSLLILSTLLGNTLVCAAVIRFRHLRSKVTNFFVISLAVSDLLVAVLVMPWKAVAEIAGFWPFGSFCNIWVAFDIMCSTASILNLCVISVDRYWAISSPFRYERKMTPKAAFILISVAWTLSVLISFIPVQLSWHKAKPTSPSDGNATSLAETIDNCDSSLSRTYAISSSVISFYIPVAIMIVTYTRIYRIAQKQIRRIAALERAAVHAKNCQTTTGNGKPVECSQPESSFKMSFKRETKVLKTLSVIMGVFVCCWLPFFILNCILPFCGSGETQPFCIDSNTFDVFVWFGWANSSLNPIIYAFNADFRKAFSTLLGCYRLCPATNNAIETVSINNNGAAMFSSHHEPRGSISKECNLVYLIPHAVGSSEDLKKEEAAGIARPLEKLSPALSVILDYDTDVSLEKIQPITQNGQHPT
T1 sequence (P21728 whole entry): as above
Chain of D5R (dopamine D5 receptor) (P21918 whole entry): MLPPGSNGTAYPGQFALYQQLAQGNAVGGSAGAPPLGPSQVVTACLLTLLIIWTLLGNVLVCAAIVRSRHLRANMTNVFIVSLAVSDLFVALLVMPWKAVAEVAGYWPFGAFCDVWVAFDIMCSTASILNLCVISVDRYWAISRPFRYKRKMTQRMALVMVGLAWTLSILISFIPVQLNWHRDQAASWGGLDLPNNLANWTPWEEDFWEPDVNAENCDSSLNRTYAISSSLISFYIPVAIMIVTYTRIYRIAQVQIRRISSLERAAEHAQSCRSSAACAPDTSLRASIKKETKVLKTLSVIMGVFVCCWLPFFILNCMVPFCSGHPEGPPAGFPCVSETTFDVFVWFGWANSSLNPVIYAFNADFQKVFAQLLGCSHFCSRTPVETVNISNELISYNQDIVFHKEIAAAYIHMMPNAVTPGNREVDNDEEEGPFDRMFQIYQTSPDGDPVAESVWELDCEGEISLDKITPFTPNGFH

Turning to `C=CCN1CCc2c(cc(O)c(O)c2Cl)C(c2cccc(C)c2)C1` (centres unmarked) [SKF 83822], the figures for the Ki in test [1] and in test [2] were 0.2 nM and 0.3 nM, respectively.
As to “N-(9-chloro-8-hydroxy-3-methyl-5-phenyl-2,3,4,5-tetrahydro-1H-benzo[d]azepin-7-yl)methanesulfonamide [Compound 22]”, in test [3] (ratio of Ki D5R to Ki D1R), the “Selectivity D5/D1” value is given as 1.5. The Ki (as a rule, the dissociation constant of the complex between target and ligand, obtained from inhibition or displacement) in test [3] (read-out: Ki D1R, [3H]SCH23390 radioligand, triplicate, na = not active (<50% inhibition in a primary assay when tested at 10 µM)) is 113 nM and 114 nM; in test [4], 166 ± 6.8 nM.
